The values below come from ChEMBL document CHEMBL5537118, “Synthesis of cinnamoyl tethered indoline derivatives with anti-inflammatory and antioxidant activities” (Eur J Med Chem, 2024).

In series [1] the test system is Mus musculus. As to the kind of experiment: Antiinflammatory activity in carrageenan-induced Kunming mouse model of paw edema assessed as edema inhibition at 10 mg/kg, ip pretreated for 1 hr followed by carrageenan administration and measured after 3 hrs relative to control. The series is classed as functional. To be noted: time 4 hrs.
The test system of series [2] is RAW264.7. As to the kind of experiment: Effect on p65 total protein expression in LPS-induced mouse RAW264.7 cells at 0.5 to 2 uM by Western blot analysis. The format is functional, cell-based. To be noted: dose 0.5-2 µM. A general note: Immunoblotting shows a protein as a band on a membrane.
Series [3] has as its system Mus musculus. As to the kind of experiment: Antiinflammatory activity in carrageenan-induced Kunming mouse model of paw edema assessed as paw volume at 30 mg/kg, IG pretreated for 1 hr followed by carrageenan administration and measured after 5 hrs by digital plethysmometer (reference value: 0.353 +/- 0.024 mL). The series is classed as functional. To be noted: time 6 hrs.

Series [4] has as its system Mus musculus. As to the kind of experiment: Antiinflammatory activity in carrageenan-induced Kunming mouse model of paw edema assessed as edema inhibition at 30 mg/kg, ip pretreated for 1 hr followed by carrageenan administration and measured after 5 hrs relative to control. The format is functional. The following applies: time 6 hrs.
In series [5] the test system is Mus musculus. As to the kind of experiment: Antiinflammatory activity in carrageenan-induced Kunming mouse model of paw edema assessed as edema inhibition at 30 mg/kg, IG pretreated for 1 hr followed by carrageenan administration and measured after 1 hr relative to control. The series is classed as functional. To be noted: po, time 2 hrs.
Series [6] concerns RAW264.7. As to the kind of experiment: Antioxidant activity in H2O2-stimulated mouse RAW264.7 cells assessed as protection against cell damage at 2 uM pretreated for 30 mins followed by H2O2 stimulation and measured after 4 hrs by MTT assay relative to control. The series is classed as functional. To be noted: time 4.5 hrs.
Series [7] deals with Mus musculus. As to the kind of experiment: Antiinflammatory activity in carrageenan-induced Kunming mouse model of paw edema assessed as reduction in iNOS protein expression in paw tissue at 1 to 30 mg/kg, ip pretreated for 1 hr followed by carrageenan administration and measured after 5 hrs by Western blot analysis. The series is classed as functional, organism-based. To be noted: dose 1-30 mg/kg, time 6.0 hrs.

Series [8] has as its system Mus musculus. As to the kind of experiment: Antioxidant activity in ip dosed carrageenan-induced Kunming mouse model of paw edema assessed as increase in HO-1 protein expression in paw tissue pretreated for 1 hr followed by carrageenan administration and measured after 5 hrs by Western blot analysis. The series is classed as functional, organism-based. The following applies: dose 1-30 mg/kg, time 6.0 hrs.

The subject of series [9] is RAW264.7. As to the kind of experiment: Antioxidant activity in LPS-induced mouse RAW264.7 cells assessed as upregulation of HO-1 protein expression incubated for 24 hrs by Western blot analysis. To be noted: dose 0.5-2 µM. The series is classed as functional, cell-based.
For series [10], the system named is Mus musculus. As to the kind of experiment: Antiinflammatory activity in carrageenan-induced Kunming mouse model of paw edema assessed as paw volume at 30 mg/kg, IG pretreated for 1 hr followed by carrageenan administration and measured after 3 hrs by digital plethysmometer (reference value: 0.365 +/- 0.044 mL). To be noted: time 4 hrs. The series is classed as functional.

Series [11] has as its system Mus musculus. As to the kind of experiment: Antiinflammatory activity in carrageenan-induced Kunming mouse model of paw edema assessed as paw volume at 10 mg/kg, ip pretreated for 1 hr followed by carrageenan administration and measured after 5 hrs by digital plethysmometer (reference value: 0.362 +/- 0.016 mL). The format is functional. To be noted: time 6 hrs.
For series [12], the system named is Mus musculus. As to the kind of experiment: Antiinflammatory activity in carrageenan-induced Kunming mouse model of paw edema assessed as paw volume at 30 mg/kg, ip pretreated for 1 hr followed by carrageenan administration and measured after 1 hr by digital plethysmometer (reference value: 0.395 +/- 0.017 mL). The format is functional. The following applies: time 2 hrs.

For series [13], the system named is RAW264.7. As to the kind of experiment: Effect on HO-1 protein expression in mouse RAW264.7 cells at 0.5 to 2 uM incubated for 24 hrs by Western blot analysis. The format is functional, cell-based. To be noted: dose 0.5-2 µM.
Series [14] deals with Mus musculus. As to the kind of experiment: Antiinflammatory activity in carrageenan-induced Kunming mouse model of paw edema assessed as edema inhibition at 10 mg/kg, ip pretreated for 1 hr followed by carrageenan administration and measured after 5 hrs relative to control. The format is functional. To be noted: time 6 hrs.
Series [15] has as its system RAW264.7. As to the kind of experiment: Antiinflammatory activity in LPS-induced mouse RAW264.7 cells assessed as inhibition of iNOS protein expression at around 2 uM incubated for 24 hrs by Western blot analysis relative to control. The format is functional.
In series [16] the test system is RAW264.7. As to the kind of experiment: Inhibition of NF-kappaB activation in LPS-induced mouse RAW264.7 cells assessed as reduction in IkappaBalpha degradation at 0.5 to 2 uM by Western blot analysis. The format is cell-based. To be noted: dose 0.5-2 µM.
In series [17] the test system is Mus musculus. As to the kind of experiment: Antiinflammatory activity in carrageenan-induced Kunming mouse model of paw edema assessed as paw volume at 30 mg/kg, IG pretreated for 1 hr followed by carrageenan administration and measured immediately by digital plethysmometer (reference value: 0.144 +/- 0.026 mL). The series is classed as functional.
The test system of series [18] is Mus musculus. As to the kind of experiment: Antiinflammatory activity in carrageenan-induced Kunming mouse model of paw edema assessed as paw volume at 1 mg/kg, ip pretreated for 1 hr followed by carrageenan administration and measured immediately by digital plethysmometer (reference value: 0.116 +/- 0.042 mL). The series is classed as functional.
Series [19] has as its system RAW264.7. As to the kind of experiment: Antiinflammatory activity in LPS-induced mouse RAW264.7 cells assessed as reduction in TNF-alpha level incubated for 24 hrs by ELISA. The format is functional, cell-based. Background: An ELISA detects its analyte on a solid surface through an enzyme-linked reagent.
The nature of series [20]: Cytotoxicity against mouse RAW264.7 cells assessed as cell viability at 2 to 10 uM measured after 24 hrs. The format is toxicity, cell-based. The following applies: dose 2-10 µM, read-out: Activity.
For series [21], the system named is RAW264.7. As to the kind of experiment: Antiinflammatory activity in LPS-induced mouse RAW264.7 cells assessed as inhibition of NO production pretreated for 1 hr followed by LPS addition and measured after 24 hrs by griess reagent based assay. The format is functional, cell-based.

Active and inactive are the calls of the source. No cut-off for these calls is given here. Where only a bound is given, the exact number is not on record here.

As usually defined, the inhibition in vivo is how much of the control response was suppressed. In general, inhibition refers to the percentage by which the read-out fell short of the control. One may read the IC50 as the concentration needed to halve the response being measured.

Turning to `O=C(/C=C/c1ccc(O)c(O)c1)NCCCN1CCc2cc(Cl)ccc21`, the inhibition in vivo at 10 mg/kg in the series on Mus musculus [1] came out at 82.8%; in the series with Mus musculus [14], 86.6%. In addition, the outcome in the series on RAW264.7 [2] and in the series with RAW264.7 [13] was inactive. The Activity in the series on Mus musculus [3] is 0.227 mL; with RAW264.7 [6] it was ~100%; in the series with Mus musculus [8], “Dose-Dependent Effect”; in the series with Mus musculus [10], 0.243 mL; with Mus musculus [11], 0.155 mL; in the series with Mus musculus [12], 0.158 mL. The Activity is 0.138 mL in the series on Mus musculus [17], 0.131 mL in the series on Mus musculus [18] and “Dose-Dependent Effect” with RAW264.7 [19]. Moreover, the values for the inhibition in vivo at 30 mg/kg with Mus musculus [4] and in the series on Mus musculus [5] were 94.1% and 24.6%, respectively. The outcome in the series with Mus musculus [7] and in the series with RAW264.7 [9] was Active. For the same molecule, the inhibition at 2 µM in the series on RAW264.7 [15] came out at 50%. Moreover, in the series on RAW264.7 [16], the inhibition result was “Active”. The IC50 in the series on RAW264.7 [19] (RAW264.7, 24 h) was 1.52 µM; in the series on RAW264.7 [21], 0.9 µM. Also, the viability at 24 h, 10 µM in series [20] was > 85%.
